# Test results taken from article PMC12951562, “SH2scan: Mapping SH2 Domain-Ligand Binding Selectivity for Inhibitors and Degraders” (Journal of Medicinal Chemistry, 2026).
# Non-standard residues stand in square brackets, D forms with d. Residues, ends and D or L forms follow the SMILES beside them. pY = N[C@@H](Cc1ccc(OP(=O)(O)O)cc1)C(=O)O
# Columns and labels:
# Assay in all cases: biochemical
# Format in all cases: binding
# VAV3 = target: T1, VAV3 (Homo sapiens, UniProt Q9UKW4)
# T1 construct: made in house; host or cells: HEK293 (transient transfection), unpurified extract
# T1 sequence (Q9UKW4 1-847): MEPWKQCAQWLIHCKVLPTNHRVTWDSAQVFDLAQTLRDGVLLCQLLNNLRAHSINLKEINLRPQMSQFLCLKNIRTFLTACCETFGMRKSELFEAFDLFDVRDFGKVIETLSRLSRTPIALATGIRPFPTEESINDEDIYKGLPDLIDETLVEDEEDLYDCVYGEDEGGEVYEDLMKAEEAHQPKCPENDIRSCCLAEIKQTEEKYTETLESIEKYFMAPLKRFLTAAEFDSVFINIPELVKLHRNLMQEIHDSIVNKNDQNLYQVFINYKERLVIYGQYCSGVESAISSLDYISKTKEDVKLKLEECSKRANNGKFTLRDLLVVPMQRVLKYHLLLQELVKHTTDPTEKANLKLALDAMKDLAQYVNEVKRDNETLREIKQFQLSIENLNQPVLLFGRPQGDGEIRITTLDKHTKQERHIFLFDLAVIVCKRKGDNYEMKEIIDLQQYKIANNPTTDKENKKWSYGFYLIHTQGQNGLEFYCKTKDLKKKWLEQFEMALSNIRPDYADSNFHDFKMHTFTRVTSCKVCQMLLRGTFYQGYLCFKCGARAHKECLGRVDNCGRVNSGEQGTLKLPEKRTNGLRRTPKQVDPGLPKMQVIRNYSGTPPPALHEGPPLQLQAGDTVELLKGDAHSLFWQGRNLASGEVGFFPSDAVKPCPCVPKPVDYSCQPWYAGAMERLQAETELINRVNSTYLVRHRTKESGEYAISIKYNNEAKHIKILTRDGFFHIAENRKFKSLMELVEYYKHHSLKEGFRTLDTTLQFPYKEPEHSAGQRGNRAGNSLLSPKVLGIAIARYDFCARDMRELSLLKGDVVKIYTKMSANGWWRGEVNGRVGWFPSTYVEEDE
# PLCG1(SH2dom.C-term.) = target: T2, PLCG1(SH2dom.C-term.) (Homo sapiens, UniProt P19174)
# T2 construct: SH2dom.C-term. denotes SH2 domain closest to C-terminus of protein; made in house; host or cells: HEK293 (transient transfection, unpurified extract)
# T2 sequence (P19174 668-756 limits assumed): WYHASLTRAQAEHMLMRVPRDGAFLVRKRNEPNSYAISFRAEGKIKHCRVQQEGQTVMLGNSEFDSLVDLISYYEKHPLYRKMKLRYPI
# VAV2 = target: T3, VAV2 (Homo sapiens, UniProt P52735)
# T3 construct: made in house; host or cells: HEK293 (transient transfection), unpurified extract
# T3 sequence (P52735 1-878): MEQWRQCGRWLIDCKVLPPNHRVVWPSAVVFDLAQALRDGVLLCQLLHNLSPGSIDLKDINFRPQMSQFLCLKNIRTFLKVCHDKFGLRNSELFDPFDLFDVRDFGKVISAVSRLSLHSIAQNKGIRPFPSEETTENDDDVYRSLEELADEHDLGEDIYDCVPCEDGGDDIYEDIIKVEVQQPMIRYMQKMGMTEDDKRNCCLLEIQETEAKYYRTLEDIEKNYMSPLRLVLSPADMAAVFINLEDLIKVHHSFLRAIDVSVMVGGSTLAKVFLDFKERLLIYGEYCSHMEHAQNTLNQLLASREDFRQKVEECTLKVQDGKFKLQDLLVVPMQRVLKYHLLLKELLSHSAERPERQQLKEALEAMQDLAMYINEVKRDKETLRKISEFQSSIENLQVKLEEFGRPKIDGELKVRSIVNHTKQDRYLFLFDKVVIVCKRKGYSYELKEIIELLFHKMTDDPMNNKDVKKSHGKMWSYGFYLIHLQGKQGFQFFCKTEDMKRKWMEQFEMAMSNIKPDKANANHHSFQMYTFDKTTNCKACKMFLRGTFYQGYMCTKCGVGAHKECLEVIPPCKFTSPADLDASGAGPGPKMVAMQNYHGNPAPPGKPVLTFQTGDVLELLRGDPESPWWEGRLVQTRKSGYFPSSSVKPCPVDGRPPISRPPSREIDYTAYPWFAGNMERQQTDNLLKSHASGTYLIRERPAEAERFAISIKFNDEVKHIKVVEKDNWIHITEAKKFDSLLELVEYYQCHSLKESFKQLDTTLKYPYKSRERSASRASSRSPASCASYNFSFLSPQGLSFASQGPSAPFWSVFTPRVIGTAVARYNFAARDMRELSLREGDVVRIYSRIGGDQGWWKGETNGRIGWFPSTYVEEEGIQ
# TXK = target: T4, TXK (Homo sapiens, UniProt P42681)
# T4 construct: made in house; host or cells: HEK293 (transient transfection), unpurified extract
# T4 sequence (P42681 1-527): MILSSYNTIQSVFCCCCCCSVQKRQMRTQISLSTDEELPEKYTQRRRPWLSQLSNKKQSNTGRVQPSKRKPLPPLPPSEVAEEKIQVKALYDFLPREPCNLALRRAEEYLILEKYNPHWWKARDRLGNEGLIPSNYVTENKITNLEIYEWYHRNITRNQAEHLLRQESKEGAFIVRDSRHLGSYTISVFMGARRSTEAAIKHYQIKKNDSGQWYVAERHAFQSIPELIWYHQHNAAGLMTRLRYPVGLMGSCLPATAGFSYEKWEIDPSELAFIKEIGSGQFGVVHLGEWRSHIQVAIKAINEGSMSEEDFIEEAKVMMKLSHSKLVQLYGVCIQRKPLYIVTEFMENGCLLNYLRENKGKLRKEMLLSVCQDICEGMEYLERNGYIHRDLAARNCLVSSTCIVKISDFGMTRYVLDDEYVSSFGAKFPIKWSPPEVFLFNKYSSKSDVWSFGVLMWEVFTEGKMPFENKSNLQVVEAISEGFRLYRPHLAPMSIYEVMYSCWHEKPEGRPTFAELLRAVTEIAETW
# VAV1 = target: T5, VAV1 (Homo sapiens, UniProt P15498)
# T5 construct: made in house; host or cells: HEK293 (transient transfection), unpurified extract
# T5 sequence (P15498 1-845): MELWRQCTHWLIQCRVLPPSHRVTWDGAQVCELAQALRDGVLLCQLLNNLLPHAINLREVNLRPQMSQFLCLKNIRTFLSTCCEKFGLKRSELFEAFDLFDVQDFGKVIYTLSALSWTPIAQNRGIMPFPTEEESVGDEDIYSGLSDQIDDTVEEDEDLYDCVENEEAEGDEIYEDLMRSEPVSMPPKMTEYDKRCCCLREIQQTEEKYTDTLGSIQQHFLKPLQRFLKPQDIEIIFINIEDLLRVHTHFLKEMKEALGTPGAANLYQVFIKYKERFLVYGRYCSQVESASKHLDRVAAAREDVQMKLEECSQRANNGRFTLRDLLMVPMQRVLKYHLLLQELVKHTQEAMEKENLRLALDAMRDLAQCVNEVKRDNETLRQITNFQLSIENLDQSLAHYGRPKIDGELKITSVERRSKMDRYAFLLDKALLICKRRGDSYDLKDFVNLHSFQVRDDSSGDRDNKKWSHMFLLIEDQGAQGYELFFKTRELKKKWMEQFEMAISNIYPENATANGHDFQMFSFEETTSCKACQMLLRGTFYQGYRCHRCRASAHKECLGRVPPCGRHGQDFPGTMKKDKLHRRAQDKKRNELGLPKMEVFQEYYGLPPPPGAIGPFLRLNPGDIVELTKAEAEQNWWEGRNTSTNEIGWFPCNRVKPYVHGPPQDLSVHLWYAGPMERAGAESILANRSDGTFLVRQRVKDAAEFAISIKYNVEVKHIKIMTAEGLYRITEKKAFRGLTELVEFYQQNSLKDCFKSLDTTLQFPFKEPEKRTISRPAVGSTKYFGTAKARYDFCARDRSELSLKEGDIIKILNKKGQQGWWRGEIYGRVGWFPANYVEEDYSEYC
# SOCS1 = target: T6, SOCS1 (Homo sapiens, UniProt O15524)
# T6 construct: made in house; host or cells: HEK293 (transient transfection), unpurified extract
# T6 sequence (O15524 1-211): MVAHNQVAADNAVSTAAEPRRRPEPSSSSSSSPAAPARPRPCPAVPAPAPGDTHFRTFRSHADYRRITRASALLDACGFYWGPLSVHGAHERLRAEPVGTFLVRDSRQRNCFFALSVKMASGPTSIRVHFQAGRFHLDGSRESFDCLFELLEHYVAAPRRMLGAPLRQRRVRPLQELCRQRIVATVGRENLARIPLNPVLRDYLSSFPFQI
# CRKL = target: T7, CRKL (Homo sapiens, UniProt P46109)
# T7 construct: the DNA-tagged SH2 domain concentrations used in this study were <0.1 nM; made in house; host or cells: HEK293 (transient transfection; unpurified extract)
# T7 sequence (P46109 14-102 limits assumed): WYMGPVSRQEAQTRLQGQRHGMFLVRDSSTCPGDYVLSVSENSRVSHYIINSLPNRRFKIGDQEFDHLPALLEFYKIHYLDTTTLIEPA
# NCK1 = target: T8, NCK1 (Homo sapiens, UniProt P16333)
# T8 construct: the DNA-tagged SH2 domain concentrations used in this study were <0.1 nM; made in house; host or cells: HEK293 (transient transfection, unpurified extract)
# TEC = target: T9, TEC (Homo sapiens, UniProt P42680)
# T9 construct: made in house; host or cells: HEK293 (transient transfection), unpurified extract
# T9 sequence (P42680 1-631): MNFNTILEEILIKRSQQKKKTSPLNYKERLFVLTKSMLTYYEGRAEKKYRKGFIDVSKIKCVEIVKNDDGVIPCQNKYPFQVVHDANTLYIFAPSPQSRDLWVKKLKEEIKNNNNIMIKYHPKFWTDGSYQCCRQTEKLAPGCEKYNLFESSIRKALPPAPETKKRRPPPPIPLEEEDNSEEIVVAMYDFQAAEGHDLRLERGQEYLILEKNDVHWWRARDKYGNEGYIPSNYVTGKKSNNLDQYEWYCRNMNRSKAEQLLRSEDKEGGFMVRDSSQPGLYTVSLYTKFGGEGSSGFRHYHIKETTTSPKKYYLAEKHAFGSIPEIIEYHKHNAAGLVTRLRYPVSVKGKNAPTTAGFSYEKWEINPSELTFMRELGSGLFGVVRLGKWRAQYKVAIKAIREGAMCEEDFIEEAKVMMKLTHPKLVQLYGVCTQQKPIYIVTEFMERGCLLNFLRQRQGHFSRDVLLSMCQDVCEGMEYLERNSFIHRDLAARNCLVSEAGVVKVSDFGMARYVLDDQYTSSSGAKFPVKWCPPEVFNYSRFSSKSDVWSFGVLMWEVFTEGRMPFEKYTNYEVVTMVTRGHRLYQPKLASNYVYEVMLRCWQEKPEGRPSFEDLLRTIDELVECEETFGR
structure (smiles),measurement,setting,value
CC(=O)N[C@@H](CC(=O)O)C(=O)N[C@H](C(=O)N[C@@H](CCC(=O)O)C(=O)N[C@H](C(=O)N[C@@H](Cc1ccc(OP(=O)(O)O)cc1)C(=O)N[C@@H](CCC(=O)O)C(=O)N[C@@H](CO)C(=O)N1CCC[C@H]1C(=O)N[C@@H](Cc1ccc(OP(=O)(O)O)cc1)C(=O)N[C@@H](C)C(=O)N[C@@H](CC(=O)O)C(=O)N1CCC[C@H]1C(=O)N[C@@H](CCC(=O)O)C(N)=O)C(C)C)[C@@H](C)O [Ac-DTEVpYESPpYADPE-NH2] (Ac-DTEV[pY]ESP[pY]ADPE-NH2),Kd,VAV3,0.163 ± 0.0482 µM
same,Kd,PLCG1(SH2dom.C-term.),2.91 ± 2.74 µM
same,Kd,VAV2,0.0951 ± 0.0199 µM
same,Kd,TXK,4.12 ± 0.637 µM
same,Kd,VAV1,1.4 ± 0.193 µM
CC(=O)N[C@@H](CS)C(=O)N[C@@H](CCC(N)=O)C(=O)N[C@H](C(=O)N[C@@H](Cc1ccc(OP(=O)(O)O)cc1)C(=O)N[C@@H](Cc1ccccc1)C(=O)N[C@H](C(=O)N[C@@H](Cc1ccc(O)cc1)C(=O)N[C@@H](CC(=O)O)C(=O)N1CCC[C@H]1C(=O)N[C@@H](Cc1ccc(O)cc1)C(=O)N[C@@H](CO)C(=O)N[C@@H](CCC(=O)O)C(N)=O)[C@@H](C)O)C(C)C (Ac-CQV[pY]FTYDPYSE-NH2),Kd,SOCS1,1.43 ± 0.426 µM
CC(=O)N[C@@H](CCC(=O)O)C(=O)N1CCC[C@H]1C(=O)NCC(=O)N1CCC[C@H]1C(=O)N[C@@H](Cc1ccc(OP(=O)(O)O)cc1)C(=O)N[C@@H](C)C(=O)N[C@@H](CCC(N)=O)C(=O)N1CCC[C@H]1C(=O)N[C@@H](CO)C(=O)N[C@H](C(=O)N[C@@H](CC(N)=O)C(=O)N[C@H](C(N)=O)[C@@H](C)O)C(C)C (Ac-EPGP[pY]AQPSVNT-NH2),Kd,CRKL,1.2 ± 0.309 µM
CC[C@H](C)[C@H](NC(=O)[C@H](Cc1c[nH]cn1)NC(=O)[C@H](CCC(=O)O)NC(C)=O)C(=O)N[C@@H](Cc1ccc(OP(=O)(O)O)cc1)C(=O)N[C@@H](CC(=O)O)C(=O)N[C@@H](CCC(=O)O)C(=O)N[C@H](C(=O)N[C@@H](C)C(=O)N[C@@H](C)C(=O)N[C@@H](CC(=O)O)C(N)=O)C(C)C [Ac-EHIpYDEVAAD-NH2],Kd,NCK1,0.0153 ± 0.00507 µM
same,Kd,TEC,0.267 ± 0.0663 µM
